Test results: US8551509B2, “Skin agent for external use and cosmetic agent including ubiquinone derivative or salt thereof and method using the same” (Showa Denko K.K., priority 2006, dated 2013)

Assays:
[1] = Maximum soluble amount in cosmetic liquid of prescription example 1 (HPLC); type: physicochemical; conditions: 1.0% added to prescription example 1, insolubles filtered off (1-μm filter paper)
Experimental: Specifically, ubiquinone or ubiquinol was added in an amount corresponding to 1.0%. The resultant suspension was filtered through 1-μm filter paper, and thereby insolubles were removed. The cosmetic liquids B and C were thus prepared.
The final concentrations of ubiquinone and ubiquinol in the cosmetic liquids B and C were measured by HPLC similarly to Example 1, resulting in 0.011% and 0.023%, respectively.

[2] = Water solubility at normal temperature; type: physicochemical
[3] = Maximum ubiquinone concentration in DMEM culture medium including 10% FBS (HPLC); type: physicochemical; conditions: DMEM with 10% FBS, 0.03% added, stirred 6 hours at room temperature, filtered
Experimental: To a DMEM culture medium including 10% FBS, reagent ubiquinone was added in an amount corresponding to 0.03%. The mixture was stirred with a stirrer at room temperature for 6 hours. The mixture was filtered through a 0.02 µm filter, and a ubiquinone-containing culture medium was prepared.

[4] = Test of radical scavenging ability (H2-DCFDA fluorescence, AAPH); type: biochemical; conditions: final concentration 0.006%, 30 minutes after AAPH addition, 37° C.
Experimental: The resultant solution was added to a 10 mM aqueous sodium hydroxide solution such that the concentration of the agent was 1 mM. The radical fluorescence detecting agent was hydrolyzed in the dark at room temperature for 60 minutes and was activated. The liquid was diluted with Dulbecco's phosphate buffered saline (PBS) to give a diluted liquid with a final concentration of 0.01 mM. […]-40 manufactured by Nihon Emulsion Co., Ltd.). […] The mixture thus prepared was used as a test liquid. A test liquid having a final ubiquinone concentration of 0.006% was prepared in the same manner using ubiquinone. A test liquid was prepared as described above except that the ubiquinone solution was replaced by the same volume of distilled water. This test liquid was used as a negative control. […] The mixture was heated to 37° C. After 30 minutes after the addition, the fluorescence intensity at an excitation wavelength of 495 nm and a fluorescence wavelength of 525 nm of the respective liquids was measured. The fluorescence suppression was obtained as radical scavenging ability of ubiquinone and potassium ubiquinol-1,4-diphosphate.

[5] = test system: Normal human skin fibroblast cells NB1RGB; conditions: 3 days, 0.007 %
Experimental: Normal human skin fibroblast cells NB1RGB (spared from RIKEN) were inoculated to a DMEM culture medium including 10% FBS on a 9 cm Petri dish such that the normal human skin fibroblast cells NB1RGB were approximately 1.0×10^5 in number per ml. The cells were cultured in a CO2 incubator at 37° C. for 7 days to reach confluent while the culture medium was exchanged every 3 days. […] After the culture, the cells were cleaned three times on the Petri dish each with 10 ml of PBS(−), and were released and recovered using trypsin/EDTA. The cells were then resuspended in 1 ml of PBS(−), and were quickly broken with a homogenizer. Insoluble matters were removed by centrifugal separation at 10000 rpm for 10 minutes, and 10 μl of the supernatant was subjected to HPLC. The remainder was combined with an equivalent amount of hexane, and these were sufficiently mixed together to give a turbid liquid. The turbid liquid was subjected to centrifugal separation at 10000 rpm for 3 minutes, and the resultant supernatant hexane layer was analyzed by HPLC.
Column: Shodex F-511A (manufactured by Showa Denko K.K)
Column temperature: 40° C.
Eluent: methanol/water/phosphoric acid=1000/5/1
Detection: photodiode array 210 nm-370 nm
In the HPLC analysis, ubiquinone used in Synthetic Example 1 and ubiquinol immediately after synthesized in Synthetic Example 1 were used as references. […]

water solubility [2]	ubiquinone concentration in the culture medium (probably the maximum) [3]	Concentration in cells after culture: Ubiquinone [5]	Compound	final concentration in the cosmetic liquid (maximum soluble amount) [1]	Fluorescence intensity (Ex 495/Em 525 nm: relative value) [4]	Radical scavenging ability (Fluorescence suppression (%)) [4]
			COc1c(O)c(C)c(C/C=C(\C)CC/C=C(\C)CC/C=C(\C)CC/C=C(\C)CC/C=C(\C)CC/C=C(\C)CC/C=C(\C)CC/C=C(\C)CC/C=C(\C)CCC=C(C)C)c(O)c1OC [ubiquinol]	0.023%		
less than 100 ppm	0.007%	2000 ng/mL	COC1=C(OC)C(=O)C(C/C=C(\C)CC/C=C(\C)CC/C=C(\C)CC/C=C(\C)CC/C=C(\C)CC/C=C(\C)CC/C=C(\C)CC/C=C(\C)CC/C=C(\C)CCC=C(C)C)=C(C)C1=O [ubiquinone, 2,3-dimethoxy-5-methyl-6-polyprenyl-1,4-benzoquinone]	0.011%	13315 relative value	41%
			tetrapotassium ubiquinol-1,4-diphosphate		5001 relative value	78%
